In patent US20250161317A1, “MOLIDUSTAT FORMULATIONS AND METHODS OF USE FOR TREATMENT OF ANEMIA IN CATS” (ELANCO US INC., priority 2022, published 2025):
Where two headings read alike, the source gives them in different places.

Tests used:
[1] = Plasma pharmacokinetic study after single oral administration to fasted and fed cats; format: in vivo, cat; settings: for AUC / AUC(0-t) / Cmax / Tmax: female, European Shorthaired, plasma, po, 3 mg/kg; for AUC / AUC(0-t) / Cmax / Tmax / Clb / MRTint / Vz / t1//2: 3.0 mg molidustat sodium per kg; for AUC / AUC(0-t) / Cmax / Clb / MRTint / Vz / t1//2: geometric mean; for Tmax: median
Experimental: (§1) Four adult, healthy, female European Shorthaired cats were selected for the study. On the day prior to treatment feed was withdrawn to ensure a fasted prandial state for the oral treatment.
The pharmacokinetic profile of the HIF-PHI was determined in plasma of 3 adult, female, healthy European Shorthaired cats with a mean body weight of 3.5 kg (StD=0.41 kg). One animal was removed from the study due to difficult handling of the animal.
(§2) The animals were treated in a fasted prandial state with the test item at a single oral dose rate of 3.0 mg/kg. After a wash out period of 14 days the animals were treated with the test item at the same dose rate and same administration route, but in a fed prandial state. Frequent blood samplings at fixed intervals were performed over a period of 48 hours after each treatment.
The plasma samples were analyzed with regard to their concentrations of molidustat and its metabolite by HPLC using a tandem mass spectrometric detector (AB Sciex API 4000).
From the individual plasma concentration-time-profiles obtained pharmacokinetics (PK) were derived using non-compartmental analyses.

Erythropoietin (EPO) = experiment: Erythropoietin concentrations after single oral administration (Example 2); format: in vivo, cat; settings: 6 hours after treatment, oral 3.0 mg/kg to fed or fasted cats
Experimental: as §1, §2
(§3) Peak and extent of plasma exposure of molidustat was higher if administered orally as sodium salt to cats at fasted prandial state compared to fed prandial state. Metabolized molidustat amounted to approximately 60% in total exposure independent of prandial state.

cats = experiment: Clinical tolerance after two oral treatments (Example 2); format: in vivo; settings: two oral treatments at 3.0 mg/kg in cats
Experimental: as §2, §3

[2] = system: cats with anemia associated with CKD; experiment: Placebo-controlled field study, efficacy (HCT/PCV) in cats with anemia associated with CKD; format: in vivo, cat
Excerpt: The objective of this study was to evaluate the safety and efficacy of molidustat to manage anemia associated with chronic kidney disease (CKD) in cats.
A total of 65 cats were screened at 11 US and 9 EU sites. Twenty-three (23) cats (13 cases from 9 sites in the US and 10 cases from 9 sites in the EU), with nearly equally distributed genders, mostly domestic shorthair breed, ranging in age from 4 to 17 years, and having initial body weights between 2 and 6 kilograms, were randomized and administered one of the two treatments. A total of 21 cats were included in the 28-day efficacy phase.

[3] = system: cats with anemia associated with CKD; experiment: Field study, in-use safety in cats with anemia associated with CKD
Experimental: This study was conducted using a single protocol in the United States (US, n=23 clinics) and Europe (EU, n=11 clinics) over a 10 month period. On study day (SD) −7 (±2 days), blood was collected for serum chemistry and hematology from cats that qualified for enrollment. After meeting enrollment criteria, cats were orally treated once daily for at least 28 consecutive days (SD 0 to SD 27) with either the control product (CP [vehicle]) or molidustat. The molidustat was administered orally at a dose of 5 mg/kg body weight (bw) (0.2 mL/kg bw). Blood was collected to assess hematological parameters on SDs 0, 7, 14, 21 and 28 (±2 days for all time points except SD 0). Blood was also collected for evaluating serum chemistry on SD 28 (±2 days), except creatinine. Hematocrit (HCT) and packed cell volumes (PCV, performed at each clinic) were the primary hematological parameters of interest. Individual animal treatment success was evaluated up to and including SD 28±2 using three different criteria, as well as using only the data on SD 28.

[4] = Plasma pharmacokinetics after single intravenous bolus dose; format: in vivo, cat; settings: for Vd: read-out: volume of distribution
Experimental: The test item was applied as single oral dose at the expected target dose rate of 5 mg molidustat sodium per kg bw, at 2.5 mg/kg and at 10 mg/kg to healthy adult cats. A single intravenous bolus dose of 5.0 mg/kg was applied for comparison using a suitable reference item (molidustat sodium aqueous solution 2.0% (m/v)).
Following a mixed serial/cross-over design, 16 healthy, adult cats (8 neutered males, 8 spayed females) were included in the study and allocated to […]. The animals were between 13.7 and 14.7 months old and weighed between 3.3 and 6.0 kg at start of the in-life phase.
The dose rates administered were at means of 2.42 mg/kg, 4.79, and 9.54 mg molidustat sodium per kg for the 0.5×, 1×, 2× dose groups, respectively. The reference item was dosed at an actual mean dose rate of 5.15 mg/kg. Dose rate calculations were based on the body weights determined prior to each study period.
Fifteen blood samples were drawn per animal after oral dosing (16 samples/animal after intravenous dosing) following a pre-determined schedule deemed suitable to describe the pharmacokinetic profile of the active substance contained in the test and reference item after single oral or intravenous dosing to cats.
Concentrations of the active substance molidustat and its major […] were analyzed by High Performance Liquid Chromatography/Tandem Mass Spectrometry in accordance with method 01469 (Krebber et al., Analytical method for the determination of BAY 85-3934 and its metabolite BAY 116-3348 in plasma by LC-MS/MS, BAG-CS report MR-15/109). The lower limit of quantitation was 5 μg/L for each substance.
Pharmacokinetic evaluation of plasma concentration data was based on the observed data using non-compartmental methods and comprised all PK-parameters to adequately describe the absorption, distribution and elimination phase of the active substance and its metabolite after oral or intravenous dosing with the test or reference item. For pharmacokinetic evaluation actual individual dose rates were used to account for the small differences between target and actual dose rates. All animals finished the in-life phase according to schedule.

[5] = SD 21, baseline-controlled analysis
[6] = SD 28, baseline-controlled analysis
[7] = both sexes, plasma, 5 mg/kg, single intravenous bolus 5 mg molidustat sodium per kg
[8] = female, plasma, iv, 5 mg/kg, females
[9] = male, plasma, iv, 5 mg/kg, males

O=c1c(-n2ccnn2)c[nH]n1-c1cc(N2CCOCC2)ncn1 [molidustat, 2-[6-(morpholin-4-yl)pyrimidin-4-yl]-4-(1H-1,2,3-triazol-1-yl)-2,3-dihydro-1H-pyrazol-3-one]
AUC ([1]; oral to fasted cats): 8420 ng·h/mL | AUC(0-t) ([1]; oral to fasted cats): 8410 ng·h/mL | Cmax ([1]; oral to fasted cats): 3130 ng/mL | Tmax ([1]; oral to fasted cats): 0.67 h | AUC ([1]; oral to fed cats): 6300 ng·h/mL | AUC(0-t) ([1]; oral to fed cats): 6280 ng·h/mL | Cmax ([1]; oral to fed cats): 930 ng/mL | Tmax ([1]; oral to fed cats): 1 h | peak and extent of plasma exposure, fasted compared to fed prandial state ([1]; oral as sodium salt, 3.0 mg/kg): higher | Clb ([1]; oral to fasted cats): 6 mL/min/kg | MRTint ([1]; oral to fasted cats): 3.7 h | Vz ([1]; oral to fasted cats): 3.74 L/kg | t1//2 ([1]; oral to fasted cats): 7.28 h | Clb ([1]; oral to fed cats): 8 mL/min/kg | MRTint ([1]; oral to fed cats): 7.0 h | Vz ([1]; oral to fed cats): 4.59 L/kg | t1//2 ([1]; oral to fed cats): 6.69 h | Erythropoietin (EPO) concentrations (Erythropoietin (EPO)): highly increased | clinical tolerance (cats): clinically well tolerated without any clinical signs of intolerance | HCT and PCV levels throughout the continuation phase ([2]; 8 cats, 5 mg/kg or intermittent 2.5 mg/kg): maintained or increased | PCV increase relative to baseline ([2]; SD 14, p=0.0167): 2.21% | HCT increase relative to baseline ([2]; SD 14, p=0.0643): 1.87% | HCT difference from average baseline [2, 5]: 3.91% | PCV difference from average baseline [2, 5]: 3.46% | HCT and PCV results compared to the CP group ([2]; SD 21, p-values<0.01): significantly greater | PCV/HCT in comparison to SD 0 ([2]; SD 21 and SD 28, once daily for 28 days at 5 mg/kg, anemic cats): significantly increased | HCT difference from average baseline [2, 6]: 3.68% | PCV difference from average baseline [2, 6]: 3.89% | HCT and PCV increases compared to the CP group ([2]; SD 28, p<0.061): approached statistical significance | treatment related adverse events ([3]; alone or with concomitant medications for CKD): No treatment related adverse events | tolerability of treatment ([3]; once daily for 28 days at 5 mg/kg): well tolerated | clearance [4, 7]: 5.17 mL/min/kg | half-life ([4]; both sexes, plasma, 5 mg/kg, single intravenous bolus 5 mg molidustat sodium per kg, read-out: elimination half-life (converted)): 5.91 h | Vd [4, 7]: 2.69 L/kg | clearance [4, 8]: 5.5 mL/min/kg | Vd [4, 8]: 2.96 L/kg | clearance [4, 9]: 5 mL/min/kg | Vd [4, 9]: 2.36 L/kg | mean plasma exposure ([4]; single intravenous bolus 5 mg molidustat sodium per kg (aqueous solution 2.0%)): 16350 ng·h/mL
